We go through five compounds from patent publication US3975389A, “Caffeine derivatives” (priority 1973, dated 1976).

The nature of data set [1]: acute toxicity, mouse. The following applies: in vivo. From the text:
(§1) o) compound dissolved in physiological salt solution.
(§2) x) compound suspended in 5% arabic gum.

Data set [2] concerns bronchial spasm caused by a broncho-constrictor aerosol of histamine hydrochloride. Put plainly: broncholitic activity in the awake guinea-pig: percentage protection against bronchial spasm caused by histamine hydrochloride aerosol. The format is in vivo.
Data set [3] in a line: survival / late mortality of guinea-pigs treated in the broncholitic activity test (48 hours, oral route). The following applies: guinea pig, in vivo, po.
In data set [4] the test system is guinea-pigs. The description is as above. The conditions noted are these: in words; tardy mortality.
Data set [5] is described as follows: strengthening of the andiogenic convulsions test in the mouse. The data set is classed as in vivo. The conditions noted are these: in vivo, ip, intraperitoneal dose of 50 mg/kg, read-out: death of treated animals. From the text: (§3) The undesired action on the central nervous system has been evaluated with the strengthening of the andiogenic convulsions test in the mouse (Werboff et coll., Amer. J. Physiol., 201, 830, 1961). As is well known, the theophilline derivatives potentiate the effects of the acoustic stimulus (motory agitation, clonic and tonic convulsions which may lead to the death of the animals).

In data set [6] the test system is effects of the acoustic stimulus (motory agitation, clonic and tonic convulsions). The data set is described as above. The data set is classed as in vivo. The following applies: intraperitoneal dose of 50 mg/kg.
From the text: as §3

For data set [7] the following is noted: bronchial asthma therapy; known for the comparison compound; cited from earlier work.
Data set [8] is described as follows: acute toxicity, guinea-pig. The following applies: in vivo.
From the text: as §1, §2

Setting [9] is: ip, dissolved in physiological salt solution.
[10] abbreviates: po, per os, suspended in 5% arabic gum.
The mark [11] stands for this setting: i.p. route, 25 mg/kg, after 30' of the administration.
Setting [12] is: i.p. route, 50 mg/kg, after 30' of the administration.
The mark [13] stands for this setting: i.p. route, 75 mg/kg, after 30' of the administration.
The mark [14] stands for this setting: oral route, 75 mg/kg, after 60' of the administration.
The mark [15] stands for this setting: oral route, 150 mg/kg, after 60' of the administration.
Where [16] appears, read: oral route, 300 mg/kg, after 60' of the administration.

What is called LD50 is the dose at which mortality reaches 50%.

SMILES strings stand for the structures.

With `Cc1ccnc(C)c1C(=O)OC(C)c1nc2c(c(=O)n(C)c(=O)n2C)n1C` (stereo not drawn) [8-[α-(2,4-dimethylnicotinoyloxy)-ethyl]-caffeine], the LD50 in data set [1] (setting [9]) amounted to 320 mg/kg; in data set [1] (setting [10]) it was 500 mg/kg.
For `Cc1ccnc(C)c1C(=O)OC(C)c1nc2c(c(=O)n(C)c(=O)n2C)n1C.Cl` (stereo not drawn) [386/986, 8-[α-(2,4-dimethylnicotinoyloxy)-ethyl]-caffeine monohydrochloride], the “Protection percentage from the spasm caused by histamine” value (shortened to “Protection percentage”) in data set [2] (setting [11]) was found to be 22%; in data set [2] (setting [12]), 39%; in data set [2] (setting [13]), 85%; in data set [2] (setting [14]) it was 39%; in data set [2] (setting [15]), 54%; in data set [2] (setting [16]), 80%. Besides, the survival at 48 h in data set [3] (75 mg/kg), in data set [3] (150 mg/kg) and in data set [3] (300 mg/kg) was 100% each time.
`CC(OC(=O)c1cccnc1)c1nc2c(c(=O)n(C)c(=O)n2C)n1C.Cl` (stereo not drawn) [386/770, 8-[α-(nicotinoyloxy)-ethyl]-caffeine monohydrochloride]: the “Protection percentage” value in data set [2] (setting [11]) came to 35%; in data set [2] (setting [12]) it was 38%; in data set [2] (setting [13]) it was 94%; in data set [2] (setting [14]), 13%; in data set [2] (setting [15]) it was 26%; in data set [2] (setting [16]) it was 65%. The survival at 48 h in data set [3] (75 mg/kg), in data set [3] (150 mg/kg) and in data set [3] (300 mg/kg) was 100% in each case.
Regarding `Cn1c(=O)c2[nH]cnc2n(C)c1=O` [Aminophilline, reference compound], the “Protection percentage” value in data set [2] (setting [12]) was found to be 24%; in data set [2] (setting [13]) it was 80%; in data set [2] (i.p. route, 100 mg/kg, after 30' of the administration) it was 100%; in data set [2] (i.p. route, 150 mg/kg, after 30' of the administration) it was 100%; in data set [2] (oral route, 50 mg/kg, after 60' of the administration) it was 14%; in data set [2] (setting [14]) it was 31%. In addition, the “Protection percentage” value is reported as 92% in data set [2] (oral route, 100 mg/kg, after 60' of the administration) and 95% in data set [2] (setting [15]). Also, the “mortality of guinea-pigs subjected to the broncholitic activity test” value in data set [4] is listed as “tardy high mortality”. Moreover, the mortality in data set [5] came to 50%. The “strengthening of the effects of the acoustic stimulus” value in data set [6] is listed as “remarkable strengthening of the effects of the acoustic stimulus”. Also, the undesired secondary effects entry in data set [7] was “excitement caused by caffeine and irritation of the gastric mucous membrane”.
Take `CC(OC(=O)c1cccnc1)c1nc2c(c(=O)n(C)c(=O)n2C)n1C` (stereo not drawn) [8-[α-(nicotinoyloxy)-ethyl]-caffeine]: the median lethal dose (LD50) in data set [8] (setting [9]) was determined as 220 mg/kg; in data set [8] (setting [10]), 440 mg/kg; in data set [1] (setting [9]) it was 445 mg/kg; in data set [1] (setting [10]), 520 mg/kg.
